In brackets after ≈: the same amount, converted by molar mass.
What was measured:
Oryctolagus sp. = conditions: for NOAEL: reproduction developmental
Anatidae = conditions: short-term; duration: 28 days; oral; feed; no effects
Equus caballus = conditions: short-term; duration: 21 days; no effects
Rattus norvegicus = conditions: for LD50: acute, mortality
Meleagris sp. = conditions: subchronic, oral, feed, no effects
Anser anser = conditions: short-term; duration: 28 days; oral; feed; no effects
Gallus gallus = conditions: for LEL: subchronic, oral, diet, no effects
Pontoscolex corethrurus = conditions: chronic/long-term; growth
Folsomia candida = conditions: chronic/long-term; duration: 28 days; mortality
Hypoaspis aculeifer = conditions: chronic/long-term; duration: 14 days; mortality
Oncorhynchus mykiss = conditions: for LC50: duration: 96 hours, mortality; for NOEC: chronic/long-term
Colinus virginianus = conditions: for LC50 / LD50: acute, oral; for LC50: diet
Anas platyrhynchos = conditions: oral, mortality
Bovidae = conditions: oral, diet; for LEL: no effects
Ovis sp. = conditions: subchronic, oral, diet
Leuciscus idus = conditions: chronic/long-term; duration: 66 days; mortality
Pimephales promelas = conditions: chronic/long-term; duration: 36 days; mortality
Pleurozium sp. = conditions: acute; duration: 72 hours; growth
Tagia sp. = conditions: for LC50: acute
Plant = conditions: not reported; seedling emergence
Lymnaea stagnalis = conditions: chronic/long-term; duration: 50 days
Bibionidae = conditions: chronic/long-term; duration: 28 days; seedling emergence
Danio rerio = conditions: acute; duration: 96 hours; mortality
Mus musculus = conditions: acute; inhalation; mortality
Daphnia magna = conditions: chronic/long-term; duration: 21 days; reproduction
Typhlodromus pyri = test: LR50; higher = less toxic; conditions: acute, mortality
Apis mellifera = conditions: acute, mortality
Homo sapiens = conditions: clinical; duration: 15 days; inhalation; clinical signs
Cyprinus carpio = conditions: acute; duration: 96 hours; mortality
[1] = subchronic, duration: 42 days, oral, diet, M/F, Not specified, no effects

For `CO[C@@H]1[C@@H](O)[C@H](C)[C@@](O)(CC(=O)[O-])O[C@H]1[C@H](C)[C@H]1O[C@@]2(CC[C@@](C)([C@H]3CC[C@@](C)([C@@H]4O[C@@H]([C@H]5O[C@](C)(O)[C@H](C)C[C@@H]5C)C[C@@H]4O[C@H]4CC[C@H](OC)[C@@H](C)O4)O3)O2)C[C@H](O)[C@H]1C.[Na+]` [Semduramicin sodium], the LEL (Oryctolagus sp.; subchronic, duration: 42 days, oral, diet, M/F, no effects) was 25 mg/kg-day, the LEL (Anatidae) was 25 mg/kg and the LEL (Equus caballus) was 0.25 mg/kg-day. For the same compound, the NOAEL (Rattus norvegicus; chronic, duration: 2 years, oral, diet, clinical chemistry) was 0.125 mg/kg-day, the NOAEL (Canidae; chronic, duration: 12 months, Dog Other, histopathology: nonneoplastic) was 0.3 mg/kg-day and the LEL (Meleagris sp.; duration: 12 weeks) was 25 mg/kg. It also gave an LEL (Anser anser) of 25 mg/kg.

With `O=C(O)c1ccccc1` [Benzoic acid] the LEL (Sus scrofa; repeat dose other, F, Large White x Landrace, clinical chemistry) was 20000 mg/kg-day, the LEL (Sus scrofa; repeat dose other, oral, diet, Not specified, histopathology: nonneoplastic) was 10000 mg/kg-day and the LEL (Sus scrofa; [1]) was 5000 mg/kg-day. For the same compound, the LEL (Sus scrofa; subchronic, duration: 84 days, oral, diet, Not specified, organ weight) was 20000 mg/kg-day, the LEL (Gallus gallus; duration: 36 days, M, Chicken) was 1500 mg/kg-day and the LD50 (Rattus norvegicus; oral) was over 1700 mg/kg-day. It also gave an NOAEL (Rattus norvegicus; chronic, duration: 2 years, oral, diet, other) of 500 mg/kg-day, an NOAEL (Rattus norvegicus; chronic, duration: 16 weeks, oral, histopathology: nonneoplastic) of 500 mg/kg-day and an NOEC (Pontoscolex corethrurus) of 384 mg/kg. The LEL (Meleagris sp.; duration: 42 days, F) was 1500 mg/kg, the NOEC (Folsomia candida) was 143 mg/kg and the NOEC (Hypoaspis aculeifer) was 1000 mg/kg. For the same compound, the LC50 (Oncorhynchus mykiss; acute) was over 9 µg/mL.

`C#CCOc1ccc(CCNC(=O)C(OCC#C)c2ccc(Cl)cc2)cc1OC` (stereo unspecified) [Mandipropamid] showed an LD50 (Rattus norvegicus; oral) of over 5000 mg/kg-day, an NOEL (Rattus norvegicus; chronic, body weight) of 20 mg/kg-day and an NOAEL (Rattus norvegicus; chronic, duration: 2 years, body weight) of 15.2 mg/kg-day. For the same compound, the NOAEL (Canidae; subchronic, duration: 90 days, oral, Dog Other, body weight) was 25 mg/kg-day, the LC50 (Colinus virginianus; mortality) was over 2140 mg/kg-day and the NOEL (Colinus virginianus; reproduction developmental) was 83.6 mg/kg-day. The LD50 (Anas platyrhynchos; acute, unspecified) was over 1000 mg/kg-day.

`ClC1=C(Cl)C2(Cl)C3C(Cl)C=CC3C1(Cl)C2(Cl)Cl` (stereo unspecified) [Heptachlor] showed an LEL (Sus scrofa; subchronic, duration: 78 days, oral, Not specified, histopathology: nonneoplastic) of 2 mg/kg-day, an LOAEL (Gallus gallus; repeat dose other, reproduction) of 0.01 mg/kg-day and an NOAEL (Bovidae; subchronic, F) of 6 mg/kg-day.

`O=c1[nH]c(=O)[nH]c(=O)[nH]1` [Cyanuric acid] was tested, and the LEL (Sus scrofa; acute, duration: 3 days, oral, diet, Not specified, no effects) was 400 mg/kg-day, the NOAEL (Ovis sp.; duration: 77 days, body weight) was 600 mg/kg-day and the NOAEL (Rattus norvegicus; chronic, duration: 2 years, oral, drinking water, histopathology: nonneoplastic) was 154 mg/kg-day. For the same compound, the LEL (Oncorhynchus mykiss; acute, duration: 3 days, oral, capsule, no effects) was 390 mg/kg-day.

`CNC(=O)/C(=N/OC)c1ccccc1COc1cc(C)ccc1C` [Dimoxystrobin] gave an NOEC (Leuciscus idus) of 15 µg/L, an NOEC (Pimephales promelas) of 16 µg/L and an NOEC (Oncorhynchus mykiss; duration: 28 days, body weight) of 10 µg/L. It also gave an NOEC (Oncorhynchus mykiss; duration: 97 days, biomass) of 1 µg/L.

`O=C(Nc1ccc([N+](=O)[O-])cc1)Nc1ccc([N+](=O)[O-])cc1` [4,4'-Dinitrodiphenylurea] was tested, and the NOEC (Pleurozium sp.) was 0.042 µg/L, the LC50 (Tagia sp.; duration: 14 days, no effects) was over 1000 mg/kg and the NOEC (Plant) was 2.9 mg/kg.

Work on `O=[N+]([O-])[O-].O=[N+]([O-])[O-].O=[N+]([O-])[O-].[Al+3]` [Aluminum nitrate] yielded an NOEC (Lymnaea stagnalis) of 0.1 mg/L.

`C[Se]CCC(O)C(=O)O` (stereo unspecified) [Butanoic acid, 2-hydroxy-4-(methylseleno)-] was tested, and the LEL (Sus scrofa; [1]) was 5 mg/kg-day, the LEL (Gallus gallus; duration: 35 days, M/F) was 5 mg/kg-day and the LEL (Gallus gallus; duration: 42 days, M/F) was 5 mg/kg-day. It also gave an LEL (Meleagris sp.; duration: 42 days, M/F, But big 6) of 5 mg/kg.

`CCCc1ncc(C[n+]2ccccc2C)c(N)n1.Cl.[Cl-]` [Amprolium hydrochloride] was tested, and the NOEC (Tagia sp.; reproductive, reproduction) was 100 mg/kg, the LEL (Gallus gallus; duration: 43 days, M/F, Chicken) was 625 mg/kg-day and the NOEC (Bibionidae) was 101 mg/kg.

`O=S(=O)(F)F` [Sulfuryl fluoride] showed an NOAEL (Rattus norvegicus; chronic, duration: 2 years, histopathology: nonneoplastic) of 20 mg/kg-day, an NOEL (Rattus norvegicus; short-term, duration: 2 days, F, Fischer 344) of 300 mg/kg-day and an NOAEL (Rattus norvegicus; subchronic, duration: 90 days, inhalation, histopathology: nonneoplastic) of 100 mg/kg-day. For the same compound, the LC50 (Danio rerio) was 0.89 µg/mL (≈ 8.72 µM) and the LC50 (Mus musculus) was 1.67 µg/mL (≈ 16.4 µM).

`CO[C@@H]1[C@@H](OC)[C@H](C)[C@@](O)(CC(=O)O)O[C@H]1[C@H](C)[C@H]1O[C@@]2(CC[C@@](C)([C@H]3CC[C@@](C)([C@@H]4O[C@@H]([C@H]5O[C@](C)(O)[C@H](C)C[C@@H]5C)C[C@@H]4O[C@@H]4C[C@H](OC)[C@@H](OC)[C@H](C)O4)O3)O2)C[C@H](O)[C@H]1C.N` [Maduramicin ammonium] was tested, and the LOAEL (Oryctolagus sp.; short-term, duration: 2 weeks, oral, diet, mortality) was 0.075 mg/kg-day, the LEL (Sus scrofa; repeat dose other, oral, diet, Not specified, mortality) was 37.5 mg/kg-day and the LEL (Ovis sp.; gross pathology) was at least 2.5 mg/kg-day. For the same compound, the LEL (Bovidae; short-term, duration: 28 days) was 0.15 mg/kg-day, the NOEL (Rattus norvegicus; chronic, duration: 2 years, oral, diet) was 0.16 mg/kg-day and the NOAEL (Rattus norvegicus; chronic, duration: 2 years, oral, diet, M/F, organ weight) was 0.12 mg/kg-day. The NOAEL (Rattus norvegicus; reproduction developmental, M/F, body weight) was 0.1 mg/kg-day and the NOAEL (Canidae; acute, duration: 3 hours, M/F, Beagle, no effects) was at least 0.1 mg/kg-day.

Work on `CC[N+](CC)(CC(=O)Nc1c(C)cccc1C)Cc1ccccc1.O=C([O-])c1ccccc1` [Denatonium benzoate] yielded an NOEC (Daphnia magna) of 5 mg/L, an LC50 (Colinus virginianus; mortality) of 778 mg/kg-day and an LD50 (Colinus virginianus; mortality) of 196 mg/kg. It also gave an LC50 (Anas platyrhynchos; short-term, feed) of 842 mg/kg-day.

With `O=C(O)Cn1cncn1` [1,2,4-Triazole-1-acetic acid] the NOAEL (Oryctolagus sp.; body weight) was 100 mg/kg-day and the NOAEL (Rattus norvegicus; reproduction developmental, body weight) was 100 mg/kg-day.

For `[Ca+2].[S-]SSS[S-]` [Calcium polysulfide], the LR50 (Typhlodromus pyri; duration: 7 days) was 113 g/ha, the LD50 (Apis mellifera; duration: 48 hours, oral, unspecified) was over 69.8 µg/piece and the LC50 (Tagia sp.; mortality) was over 1000 mg/kg. It also gave an LD50 (Rattus norvegicus; oral) of 1340 mg/kg-day, an NOAEL (Rattus norvegicus; subchronic, duration: 90 days, oral, clinical chemistry) of 150 mg/kg-day and an LC50 (Oncorhynchus mykiss; acute) of 2.67 µg/mL.

For `CC(=O)O` [Acetic acid], the NOEC (Daphnia magna) was 22.7 mg/L, the NOAEC (Homo sapiens) was 10 mg/m3 and the NOAEL (Oryctolagus sp.; oral, mortality) was 16 mg/kg-day. The LD50 (Apis mellifera; dermal) was over 96 µg/piece, the LD50 (Apis mellifera; oral, unspecified) was over 110 µg/piece and the LC50 (Tagia sp.; mortality) was over 1000 mg/kg. It also gave an LC50 (Cyprinus carpio) of 43.8 µg/mL (≈ 729 µM).

Work on `C[C@H]1O[C@H](O[C@H]2[C@H](O)[C@@H](O)[C@@H](O[C@@H]([C@H](O)[C@@H](O)C=O)[C@H](O)CO)O[C@@H]2CO)[C@H](O)[C@@H](O)[C@@H]1N[C@H]1C=C(CO)[C@@H](O)[C@H](O)[C@H]1O` [Acarbose] yielded an LEL (Bovidae; subchronic, duration: 56 days, F) of 350 mg/kg-day.

`OC[C@H]1OC(O[C@H]2[C@H](O)[C@@H](CO)OC(O[C@H]3[C@H](O)[C@@H](CO)OC(O)[C@@H]3O)[C@@H]2O)[C@H](O)[C@@H](O)[C@@H]1O` (stereo partly specified) [Laminaran] showed an LR50 (Typhlodromus pyri) of 115 g/ha, an LD50 (Apis mellifera; dermal) of over 100 µg/piece and an LD50 (Apis mellifera; oral, unspecified) of over 119 µg/piece. The LD50 (Rattus norvegicus; oral) was over 2000 mg/kg-day, the NOAEL (Rattus norvegicus; subchronic, duration: 90 days, oral, no effects) was 1000 mg/kg-day and the NOEC (Pontoscolex corethrurus) was 262 mg/kg. For the same compound, the LC50 (Danio rerio) was over 71.3 µg/mL, the LD50 (Colinus virginianus; mortality) was over 1700 mg/kg-day and the LEL (Colinus virginianus; chronic, mortality) was over 170 mg/kg-day.
